# Results taken from ChEMBL document CHEMBL3885881, “DrugMatrix”.
# Organism: Rattus norvegicus
# Test: DrugMatrix - Regimen: Daily Repeat
# Format: toxicity, organism-based, Sprague-Dawley
# Parameters: regimen Daily Repeat, gender Male, age 6-8 weeks
# Details: in vivo, po, 17 mg/kg, route oral GAVAGE, dose level High, vehicle .5 % CMC; for ABSOLUTE BASOPHIL / ABSOLUTE EOSINOPHIL / ABSOLUTE LYMPHOCYTE / ABSOLUTE MONOCYTE / ABSOLUTE SEGMENTED NEUTROPHIL / BASOPHIL / EOSINOPHIL / ERYTHROCYTE COUNT / HEMATOCRIT / HEMOGLOBIN / LEUKOCYTE COUNT / LYMPHOCYTE / MEAN CORPUSCULAR HEMOGLOBIN / MEAN CORPUSCULAR HEMOGLOBIN CONCENTRATION / MONOCYTE / NEUTROPHIL / NUCLEATED RED BLOOD CELLS / PLATELET COUNT: tissue Blood; for ALANINE AMINOTRANSFERASE / ALBUMIN / ALKALINE PHOSPHATASE / ASPARTATE AMINOTRANSFERASE / BLOOD UREA NITROGEN / CARBON DIOXIDE / CHLORIDE / CHOLESTEROL / CREATININE / GLUCOSE / LACTATE DEHYDROGENASE / LIPASE / PHOSPHORUS / POTASSIUM / SODIUM / TOTAL BILIRUBIN / TOTAL PROTEIN / URIC ACID: tissue Plasma
smiles,measurement,setting,value
O=C(Nc1c(Cl)cncc1Cl)c1ccc(OC(F)F)c(OCC2CC2)c1 [ROFLUMILAST],ABSOLUTE BASOPHIL,"96 h, time 4 day",0 CELLS/uL
same,ABSOLUTE EOSINOPHIL,"96 h, time 4 day",0 CELLS/uL
same,ABSOLUTE LYMPHOCYTE,"96 h, time 4 day",3924 CELLS/uL
same,ABSOLUTE MONOCYTE,"96 h, time 4 day",981 CELLS/uL
same,ABSOLUTE SEGMENTED NEUTROPHIL,"96 h, time 4 day",16695 CELLS/uL
same,BASOPHIL,"96 h, time 4 day",0%
same,EOSINOPHIL,"96 h, time 4 day",0%
same,ERYTHROCYTE COUNT,"96 h, time 4 day",6.21 x10E6/uL
same,HEMATOCRIT,"96 h, time 4 day",36.1%
same,HEMOGLOBIN,"96 h, time 4 day",13.4 G/DL
same,LEUKOCYTE COUNT,"96 h, time 4 day",21.6 x10E3/uL
same,LYMPHOCYTE,"96 h, time 4 day",18%
same,MEAN CORPUSCULAR HEMOGLOBIN,"96 h, time 4 day",21.6 pg
same,MEAN CORPUSCULAR HEMOGLOBIN CONCENTRATION,"96 h, time 4 day",37.15 G/DL
same,MONOCYTE,"96 h, time 4 day",4.5%
same,NEUTROPHIL,"96 h, time 4 day",77.5%
same,NUCLEATED RED BLOOD CELLS,"96 h, time 4 day",0 /100WBC
same,PLATELET COUNT,"96 h, time 4 day",1458.5 x10E3/uL
same,ALANINE AMINOTRANSFERASE,"96 h, time 4 day",19 u/L
same,ALBUMIN,"96 h, time 4 day",2.45 G/DL
same,ALKALINE PHOSPHATASE,"96 h, time 4 day",153.5 u/L
same,ASPARTATE AMINOTRANSFERASE,"96 h, time 4 day",51.5 u/L
same,BLOOD UREA NITROGEN,"96 h, time 4 day",24 mg/dL
same,CARBON DIOXIDE,"96 h, time 4 day",32 mmol/L
same,CHLORIDE,"96 h, time 4 day",96.5 MEQ/L
same,CHOLESTEROL,"96 h, time 4 day",50.5 mg/dL
same,CREATININE,"96 h, time 4 day",0.16 mg/dL
same,GLUCOSE,"96 h, time 4 day",112.5 mg/dL
same,LACTATE DEHYDROGENASE,"96 h, time 4 day",173 u/L
same,LIPASE,"96 h, time 4 day",7.5 u/L
same,PHOSPHORUS,"96 h, time 4 day",10.1 mg/dL
same,POTASSIUM,"96 h, time 4 day",5.21 MEQ/L
same,SODIUM,"96 h, time 4 day",143.95 MEQ/L
same,TOTAL BILIRUBIN,"96 h, time 4 day",0.15 mg/dL
same,TOTAL PROTEIN,"96 h, time 4 day",6 G/DL
same,URIC ACID,"96 h, time 4 day",1.7 mg/dL
same,ABSOLUTE BASOPHIL,"[…], time 14 day",0 CELLS/uL
same,ABSOLUTE EOSINOPHIL,"[…], time 14 day",0 CELLS/uL
same,ABSOLUTE LYMPHOCYTE,"[…], time 14 day",3828.67 CELLS/uL
same,ABSOLUTE MONOCYTE,"[…], time 14 day",852.67 CELLS/uL
same,ABSOLUTE SEGMENTED NEUTROPHIL,"[…], time 14 day",8985.33 CELLS/uL
same,BASOPHIL,"[…], time 14 day",0%
same,EOSINOPHIL,"[…], time 14 day",0%
same,ERYTHROCYTE COUNT,"[…], time 14 day",7.38 x10E6/uL
same,HEMATOCRIT,"[…], time 14 day",41.2%
same,HEMOGLOBIN,"[…], time 14 day",14.73 G/DL
same,LEUKOCYTE COUNT,"[…], time 14 day",13.67 x10E3/uL
same,LYMPHOCYTE,"[…], time 14 day",26%
same,MEAN CORPUSCULAR HEMOGLOBIN,"[…], time 14 day",20 pg
same,MEAN CORPUSCULAR HEMOGLOBIN CONCENTRATION,"[…], time 14 day",35.83 G/DL
same,MONOCYTE,"[…], time 14 day",6.33%
same,NEUTROPHIL,"[…], time 14 day",67.67%
same,NUCLEATED RED BLOOD CELLS,"[…], time 14 day",0 /100WBC
same,PLATELET COUNT,"[…], time 14 day",2047.33 x10E3/uL
same,ALANINE AMINOTRANSFERASE,"[…], time 14 day",33 u/L
same,ALBUMIN,"[…], time 14 day",3.1 G/DL
same,ALKALINE PHOSPHATASE,"[…], time 14 day",109 u/L
same,ASPARTATE AMINOTRANSFERASE,"[…], time 14 day",103.67 u/L
same,BLOOD UREA NITROGEN,"[…], time 14 day",25 mg/dL
same,CARBON DIOXIDE,"[…], time 14 day",30 mmol/L
same,CHLORIDE,"[…], time 14 day",97.5 MEQ/L
same,CHOLESTEROL,"[…], time 14 day",42.5 mg/dL
same,CREATININE,"[…], time 14 day",0.19 mg/dL
same,GLUCOSE,"[…], time 14 day",128 mg/dL
same,LACTATE DEHYDROGENASE,"[…], time 14 day",569 u/L
same,LIPASE,"[…], time 14 day",10 u/L
same,PHOSPHORUS,"[…], time 14 day",9.15 mg/dL
same,POTASSIUM,"[…], time 14 day",5.72 MEQ/L
same,SODIUM,"[…], time 14 day",142.95 MEQ/L
same,TOTAL BILIRUBIN,"[…], time 14 day",0.1 mg/dL
same,TOTAL PROTEIN,"[…], time 14 day",6.25 G/DL
same,URIC ACID,"[…], time 14 day",1.7 mg/dL
